Activity calls are given as the source filed them. The rule behind the calls is not given here.
Key:
HRPE [1] = assay: Induction of cell cycle arrest in human RPE cells expressing MYC-Bcl2 assessed as disorganized NUMA1 at 4 uM for 6 hrs by immunostaining analysis; assay type: functional, cell-based
HRPE [2] = assay: Induction of mitotic arrest in HRPE Cells overexpressing MYC at 20 uM by acridine orange staining based fluorescence microscopic analysis; assay type: functional, tissue-based; details: Homo sapiens
HRPE [3] = assay: Induction of mitotic arrest in HRPE Cells overexpressing MYC-Bcl2 measured for 46 to 62 hrs by time-lapse analysis; assay type: functional, tissue-based; details: Homo sapiens, dose 2-4 µM, time 46-62 hrs
HRPE [4] = assay: Induction of mitotic arrest in HRPE Cells overexpressing MYC assessed as polyploidy at 5 uM by acridine orange staining based fluorescence microscopic analysis; assay type: functional, tissue-based; details: Homo sapiens
[5] = Induction of mitotic arrest in HRPE Cells overexpressing MYC measured for 24 hrs by acridine orange staining based fluorescence microscopic analysis; assay type: functional, tissue-based, Homo sapiens
[6] = Induction of mitotic arrest in HRPE Cells overexpressing MYC assessed as polyploidy measured for 48 hrs by acridine orange staining based fluorescence microscopic analysis; assay type: functional, tissue-based, Homo sapiens
HRPE [7] = assay: Induction of cell cycle arrest in HRPE cells overexpressing MYC/Bcl2 assessed as centrosome amplification measured after 6 hrs by DAPI staining based analysis; assay type: functional; details: Homo sapiens
[8] = target: T1, Aurora kinase A (Homo sapiens) (UniProt O14965); assay: Inhibition of AURKA (unknown origin) in HRPE cells overexpressing MYC/Bcl2 assessed as inhibition of autophosphorylation of threonine 288 at 20 uM measured for 6 hrs by immunostaining based fluorescence microscopic analysis; assay type: cell-based
T1 sequence (whole entry): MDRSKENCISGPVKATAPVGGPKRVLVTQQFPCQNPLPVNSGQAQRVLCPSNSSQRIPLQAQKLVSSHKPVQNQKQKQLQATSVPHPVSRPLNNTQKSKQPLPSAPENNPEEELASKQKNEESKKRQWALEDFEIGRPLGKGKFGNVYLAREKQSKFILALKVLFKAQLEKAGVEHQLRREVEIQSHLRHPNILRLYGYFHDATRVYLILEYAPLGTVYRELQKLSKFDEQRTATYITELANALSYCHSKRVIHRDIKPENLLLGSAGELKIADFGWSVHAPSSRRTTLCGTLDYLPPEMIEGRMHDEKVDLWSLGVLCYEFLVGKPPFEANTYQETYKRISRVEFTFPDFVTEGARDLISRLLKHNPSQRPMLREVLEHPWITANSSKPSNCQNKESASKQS

[9] = target: Aurora kinase B (Homo sapiens) (UniProt Q96GD4); assay: Inhibition of AURKB (unknown origin) in HRPE cells overexpressing MYC/Bcl2 assessed as decrease in H3PS10 fluorescence intensity at 20 uM measured for 6 hrs by immunostaining based fluorescence microscopic analysis; assay type: cell-based
Aurora kinase B (Homo sapiens), sequence (Q96GD4 whole entry): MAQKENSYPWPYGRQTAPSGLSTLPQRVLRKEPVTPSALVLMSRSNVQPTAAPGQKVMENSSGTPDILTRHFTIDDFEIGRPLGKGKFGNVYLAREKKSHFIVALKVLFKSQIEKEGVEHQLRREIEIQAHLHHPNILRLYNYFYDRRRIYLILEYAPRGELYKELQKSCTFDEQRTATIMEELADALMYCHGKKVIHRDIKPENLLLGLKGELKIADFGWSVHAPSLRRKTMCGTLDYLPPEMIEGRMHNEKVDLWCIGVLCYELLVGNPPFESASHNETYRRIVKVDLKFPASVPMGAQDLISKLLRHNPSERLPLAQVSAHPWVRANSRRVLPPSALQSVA

NCI-H460 = assay: Cytotoxicity against human NCI-H460 cells assessed as centrosome amplification and declustering by measuring multiple foci by immunostaining analysis; assay type: functional, cell-based; details: time 72.0 hrs
[10] = Cytotoxicity against human wild type p53HCT116 cells assessed as cell viability measured after 72 hrs by MTT assay; assay type: functional, cell-based; details: p53HCT116, 72 h
[11] = Cytotoxicity against human HCT116-p53-null cells assessed as cell viability measured after 72 hrs by MTT assay; assay type: functional, cell-based
NCI-H23 = assay: Cytotoxicity against human NCI-H23 cells harboring MYC assessed as cell viability measured after 72 hrs by MTT assay; assay type: functional, cell-based; details: NCI-H23, 72 h
[12] = Cytotoxicity against HRPE cells overexpressing MYC assessed as cell viability measured after 72 hrs by MTT assay; assay type: functional, cell-based; details: Homo sapiens
[13] = Cytotoxicity against HRPE cells overexpressing MYC/Bcl2 assessed as cell viability measured after 72 hrs by MTT assay; assay type: functional, cell-based; details: Homo sapiens
A549 = assay: Cytotoxicity against human A549 cells assessed as cell viability measured after 72 hrs by MTT assay; assay type: functional, cell-based; details: A549, 72 h
HeLa = assay: Cytotoxicity against human HeLa cells assessed as cell viability measured after 72 hrs by MTT assay; assay type: functional, cell-based
MDA-MB-231 = assay: Cytotoxicity against human MDA-MB-231 cells assessed as cell viability measured after 72 hrs by MTT assay; assay type: functional, cell-based; details: MDA-MB-231, 72 h
SW480 = assay: Cytotoxicity against human SW480 cells assessed as cell viability measured after 72 hrs by MTT assay; assay type: functional, cell-based; details: SW480, 72 h
HRPE [14] = assay: Cytotoxicity against HRPE cells overexpressing MYC-H2BGFP assessed as cell viability measured after 72 hrs by MTT assay; assay type: functional, cell-based; details: Homo sapiens
HRPE [15] = assay: Induction of cell cycle arrest in human RPE cells expressing MYC-Bcl2 assessed as foci in colocalized gamma-tubulin at 4 uM for 6 hrs by immunostaining analysis; assay type: functional, cell-based
HRPE [16] = assay: Induction of cell cycle arrest in human RPE cells expressing MYC-Bcl2 assessed as foci in colocalized Aurora kinase A at 4 uM for 6 hrs by immunostaining analysis; assay type: functional, cell-based
HRPE [17] = assay: Induction of cell cycle arrest in human RPE cells expressing MYC-Bcl2 assessed as disorganized alpha-tubulin at 4 uM for 6 hrs by immunostaining analysis; assay type: functional, cell-based

## CCN(CCCOc1ccc2c(Nc3cc(CC(=O)Nc4cccc(F)c4)[nH]n3)ncnc2c1)CCOP(=O)(O)O
HRPE [1]
  Activity: inactive

## COc1cc2c(cc1OC)[C@@H]1Cc3ccc(OC)c(OC)c3CN1CC2
HRPE [2]
  Activity: inactive

## COc1cc2c(cc1O)[C@@H]1Cc3ccc(OC)c(O)c3CN1CC2 [SCOULERINE]
HRPE [3]
  Activity: Dose-Dependent Effect
HRPE [2]
  Activity: inactive
HRPE [4]
  Activity: Active
[5]
  EC50: 3.54 µM
[6]
  EC50: 3.6 µM
HRPE [7]
  Activity: inactive
[8]
  inhibition: Active
[9]
  inhibition: Active
NCI-H460
  Activity: Active
[10]
  IC50: 6.81 µM
[11]
  IC50: 5.48 µM
NCI-H23
  IC50: 2.54 µM
[12]
  IC50: 4.07 µM
[13]
  IC50: 4.62 µM
A549
  IC50: 26.3 µM
HeLa
  IC50: 6.74 µM
MDA-MB-231
  IC50: 7.32 µM
SW480
  IC50: 4.24 µM
HRPE [14]
  Activity: inactive
HRPE [15]
  Activity: Active
HRPE [16]
  Activity: Active
HRPE [17]
  Activity: Active
HRPE [1]
  Activity: Active

## COc1cc(Nc2ncc3c(n2)-c2ccc(Cl)cc2C(c2c(F)cccc2OC)=NC3)ccc1C(=O)O
HRPE [14]
  Activity: Active

## COc1cc2c(cc1O)[C@@H]1Cc3ccc(O)c(OC)c3CN1CC2
HRPE [2]
  Activity: inactive
